As usually defined, the MIC is the smallest concentration in the dilution series that meets the test's criterion for growth inhibition.

Active and inactive are the calls of the source. A value given as a limit tells only on which side of the number the result lay.

The text below walks through data of ChEMBL document CHEMBL1128610, “Synthesis of potential -lactam antibiotics” (1995).

In assay [1] the test system is Escherichia coli. Kind of assay: Minimum inhibitory concentration required for antibacterial activity against Escherichia coli ATCC 25922. In kind it is functional.
The test system of assay [2] is Staphylococcus aureus. The experiment in a line: Minimum inhibitory concentration required for antibacterial activity against Staphylococcus aureus ATCC 29213. It is filed as functional.
Assay [3] relates to Staphylococcus aureus. Kind of assay: Compound was evaluated for antibacterial activity against Staphylococcus aureus ATCC 29213; Inactive. It is filed as functional, organism-based.
Assay [4] deals with Escherichia coli. The experiment in a line: Compound was evaluated for antibacterial activity against Escherichia coli ATCC 25922; Inactive. It is filed as functional, organism-based.

Turning to `CCOC(C(=O)[O-])N1OC[C@H](NC(=O)c2ccccc2)C1=O.[K+]` (stereo partly specified), the MIC against Escherichia coli [1] and with Staphylococcus aureus [2] was over 1000 µg/mL throughout.

With `O=C(COc1ccccc1)N[C@H]1CON(S(=O)(=O)[O-])C1=O.[K+]`, the MIC in the assay on Escherichia coli [1] and in the assay on Staphylococcus aureus [2] was over 500 µg/mL in each case.

For `CO/N=C(\C(=O)N[C@H]1CON(C(Oc2ccccc2)C(=O)O)C1=O)c1csc(N)n1` (stereo in doubt; 4b), the MIC result in the assay on Staphylococcus aureus [3] and in the assay on Escherichia coli [4] was “inactive” each time.

Turning to `CO/N=C(\C(=O)N[C@H]1CON(C(Oc2ccccc2)C(=O)O)C1=O)c1csc(N)n1` (stereo in doubt; 4c), the MIC result in the assay with Staphylococcus aureus [3] and with Escherichia coli [4] was “inactive” throughout.

For `CO/N=C(\C(=O)N[C@H]1CON(C(Oc2ccc(F)cc2)C(=O)O)C1=O)c1csc(N)n1` (stereo in doubt; 4d), the MIC entry in the assay with Staphylococcus aureus [3] and in the assay on Escherichia coli [4] was “inactive” in each case.

For `CO/N=C(\C(=O)N[C@H]1CON(C(Oc2ccc(F)cc2)C(=O)O)C1=O)c1csc(N)n1` (stereo in doubt; 4e), the MIC entry in the assay with Staphylococcus aureus [3] and in the assay with Escherichia coli [4] was “inactive” each time.

As for `CO/N=C(\C(=O)N[C@H]1CON(C(Oc2ccc(Cl)cc2)C(=O)O)C1=O)c1csc(N)n1` (stereo in doubt; 4f), the MIC entry in the assay on Staphylococcus aureus [3] and with Escherichia coli [4] was “inactive” in each case.

As for `CO/N=C(\C(=O)N[C@H]1CON(C(Oc2ccc(Cl)cc2)C(=O)O)C1=O)c1csc(N)n1` (stereo in doubt; 4g), the MIC entry in the assay on Staphylococcus aureus [3] and with Escherichia coli [4] was “inactive” each time.
